Measurements: US20140155389A1, “BICYCLIC INHIBITORS OF ALK” (ABBVIE INC., priority 2011, published 2014)

Each compound was assayed against T1, ALK (Homo sapiens, UniProt Q9UM73) (assay: ALK kinase assay (HTRF)). Conditions: apparent Ki from IC50 by Cheng-Prusoff; ALK (Millipore) 3 nM or 4 nM, 50 μM ATP, 1 h at room temperature; read-out: HTRF_ALK Human - Ki.
T1 construct: purchased Millipore
Type: biochemical

T1 sequence (Q9UM73 19-1620): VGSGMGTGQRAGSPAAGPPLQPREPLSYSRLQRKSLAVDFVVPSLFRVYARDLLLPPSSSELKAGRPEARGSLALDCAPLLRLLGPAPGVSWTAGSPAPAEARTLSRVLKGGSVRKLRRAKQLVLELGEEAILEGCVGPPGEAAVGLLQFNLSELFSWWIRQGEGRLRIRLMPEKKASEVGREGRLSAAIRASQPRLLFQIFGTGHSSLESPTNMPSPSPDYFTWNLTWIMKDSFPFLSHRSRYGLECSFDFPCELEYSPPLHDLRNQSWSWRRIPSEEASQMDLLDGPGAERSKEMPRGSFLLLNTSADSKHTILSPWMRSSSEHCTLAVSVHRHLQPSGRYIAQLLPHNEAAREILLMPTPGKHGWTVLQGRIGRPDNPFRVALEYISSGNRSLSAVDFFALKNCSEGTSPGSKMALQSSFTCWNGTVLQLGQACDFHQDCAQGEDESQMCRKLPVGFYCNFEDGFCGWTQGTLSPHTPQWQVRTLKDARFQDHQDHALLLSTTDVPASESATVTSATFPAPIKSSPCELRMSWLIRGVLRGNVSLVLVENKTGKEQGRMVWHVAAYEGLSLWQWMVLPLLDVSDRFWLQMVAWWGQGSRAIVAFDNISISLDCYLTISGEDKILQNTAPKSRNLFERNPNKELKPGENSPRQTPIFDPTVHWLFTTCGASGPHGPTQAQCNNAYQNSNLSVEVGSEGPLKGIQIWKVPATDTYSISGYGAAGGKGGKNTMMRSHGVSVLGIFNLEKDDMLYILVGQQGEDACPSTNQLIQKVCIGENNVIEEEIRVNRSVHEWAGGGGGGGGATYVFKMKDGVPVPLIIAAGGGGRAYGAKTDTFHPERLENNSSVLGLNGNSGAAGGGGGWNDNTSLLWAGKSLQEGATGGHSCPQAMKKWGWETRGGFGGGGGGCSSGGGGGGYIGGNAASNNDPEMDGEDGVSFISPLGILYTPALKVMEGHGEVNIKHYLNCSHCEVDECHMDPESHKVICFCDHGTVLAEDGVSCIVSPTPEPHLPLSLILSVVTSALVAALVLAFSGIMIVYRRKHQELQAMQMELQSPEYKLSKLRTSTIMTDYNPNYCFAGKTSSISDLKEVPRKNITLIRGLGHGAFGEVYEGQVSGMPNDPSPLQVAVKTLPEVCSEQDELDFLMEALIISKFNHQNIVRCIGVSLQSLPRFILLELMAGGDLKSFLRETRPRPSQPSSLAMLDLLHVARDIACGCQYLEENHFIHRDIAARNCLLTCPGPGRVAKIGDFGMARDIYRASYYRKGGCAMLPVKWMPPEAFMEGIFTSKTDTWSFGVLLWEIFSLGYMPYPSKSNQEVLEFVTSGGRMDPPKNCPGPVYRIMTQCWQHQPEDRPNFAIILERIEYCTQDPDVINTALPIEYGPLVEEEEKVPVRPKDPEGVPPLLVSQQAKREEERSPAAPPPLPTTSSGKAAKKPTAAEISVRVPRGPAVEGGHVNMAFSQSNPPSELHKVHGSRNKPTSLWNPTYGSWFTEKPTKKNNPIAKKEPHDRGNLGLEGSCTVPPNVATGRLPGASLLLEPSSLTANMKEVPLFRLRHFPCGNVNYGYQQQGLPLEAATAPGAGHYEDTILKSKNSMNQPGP

Row | Compound | Ki [nM]
1 | COCCNc1cc2cnnc(O)c2c(Nc2ccc(N3CCNCC3)cc2OC)n1 [Example 36, 7-[(2-methoxyethyl)amino]-5-{[2-methoxy-4-(piperazin-1-yl)phenyl]amino}pyrido[3,4-d]pyridazin-4-ol] | 26
2 | COc1cc(N2CCNCC2)ccc1Nc1nc(Nc2cccc(F)c2F)cc2cn[nH]c(=O)c12 [Example 37, 7-[(2,3-difluorophenyl)amino]-5-{[2-methoxy-4-(piperazin-1-yl)phenyl]amino}pyrido[3,4-d]pyridazin-4(3H)-one] | 3
3 | COc1cc(N2CCNCC2)ccc1Nc1nc(N2CCCCC2)cc2cn[nH]c(=O)c12 [Example 39, 5-{[2-methoxy-4-(piperazin-1-yl)phenyl]amino}-7-(piperidin-1-yl)pyrido[3,4-d]pyridazin-4(3H)-one] | 7
4 | COc1cc(N2CCNCC2)ccc1Nc1nc(NCc2ccccc2)cc2cn[nH]c(=O)c12 [Example 40, 7-(benzylamino)-5-{[2-methoxy-4-(piperazin-1-yl)phenyl]amino}pyrido[3,4-d]pyridazin-4(3H)-one] | 36
5 | COc1cc(N2CCNCC2)ccc1Nc1nc(-c2ccccc2)cc2cn[nH]c(=O)c12 [Example 41, 5-{[2-methoxy-4-(piperazin-1-yl)phenyl]amino}-7-phenylpyrido[3,4-d]pyridazin-4(3H)-one] | 28
6 | O=c1[nH]ncc2cc(Cc3c(Cl)cccc3Cl)nc(Nc3c(F)cc(N4CCNCC4)cc3F)c12 [Example 42, 7-(2,6-dichlorobenzyl)-5-{[2,6-difluoro-4-(piperazin-1-yl)phenyl]amino}pyrido[3,4-d]pyridazin-4(3H)-one] | 25
7 | COc1cc(N2CCNCC2)ccc1Nc1nc(Nc2ccccn2)cc2cn[nH]c(=O)c12 [Example 43, 5-{[2-methoxy-4-(piperazin-1-yl)phenyl]amino}-7-(pyridin-2-ylamino)pyrido[3,4-d]pyridazin-4(3H)-one] | 15
8 | COc1cc(N2CCNCC2)ccc1Nc1nc(NCCc2ccccn2)cc2cnnc(O)c12 [Example 47, 5-{[2-methoxy-4-(piperazin-1-yl)phenyl]amino}-7-{[2-(pyridin-2-yl)ethyl]amino}pyrido[3,4-d]pyridazin-4-ol] | 53
9 | COc1cc(N2CCNCC2)ccc1Nc1nc(Nc2ncccc2Cl)cc2cn[nH]c(=O)c12 [Example 50, 7-[(3-chloropyridin-2-yl)amino]-5-{[2-methoxy-4-(piperazin-1-yl)phenyl]amino}pyrido[3,4-d]pyridazin-4(3H)-one] | 9
10 | COc1cc(N2CCNCC2)ccc1Nc1nc(Nc2c(F)cc(F)cc2F)cc2cn[nH]c(=O)c12 [Example 52, 5-{[2-methoxy-4-(piperazin-1-yl)phenyl]amino}-7-[(2,4,6-trifluorophenyl)amino]pyrido[3,4-d]pyridazin-4(3H)-one] | 2
11 | COc1cc(N2CCNCC2)ccc1Nc1nc(Nc2ccc(F)c(F)c2F)cc2cn[nH]c(=O)c12 [Example 53, 5-{[2-methoxy-4-(piperazin-1-yl)phenyl]amino}-7-[(2,3,4-trifluorophenyl)amino]pyrido[3,4-d]pyridazin-4(3H)-one] | 4
12 | COc1cc(N2CCNCC2)ccc1Nc1nc(Nc2cccc(Cl)c2F)cc2cnnc(O)c12 [Example 54, 7-[(3-chloro-2-fluorophenyl)amino]-5-{[2-methoxy-4-(piperazin-1-yl)phenyl]amino}pyrido[3,4-d]pyridazin-4-ol] | 4
13 | COc1cc(N2CCNCC2)ccc1Nc1nc(Nc2nccs2)cc2cn[nH]c(=O)c12 [Example 56, 5-{[2-methoxy-4-(piperazin-1-yl)phenyl]amino}-7-(1,3-thiazol-2-ylamino)pyrido[3,4-d]pyridazin-4(3H)-one] | 5
14 | COc1cc(N2CCNCC2)ccc1Nc1nc(Nc2ccncc2Cl)cc2cn[nH]c(=O)c12 [Example 60, 7-[(3-chloropyridin-4-yl)amino]-5-{[2-methoxy-4-(piperazin-1-yl)phenyl]amino}pyrido[3,4-d]pyridazin-4(3H)-one] | 3

More lines, in order of falling Ki, values ahead:

Row | Ki [nM] | Compound
15 | 51 | COc1cc(N2CCNCC2)ccc1Nc1nc(NCCN(C)C)cc2cn[nH]c(=O)c12 [Example 45, 7-{[2-(dimethylamino)ethyl]amino}-5-{[2-methoxy-4-(piperazin-1-yl)phenyl]amino}pyrido[3,4-d]pyridazin-4(3H)-one]
16 | 16 | COc1cc(N2CCNCC2)ccc1Nc1nc(NCc2ccco2)cc2cnnc(O)c12 [Example 38, 7-[(furan-2-ylmethyl)amino]-5-{[2-methoxy-4-(piperazin-1-yl)phenyl]amino}pyrido[3,4-d]pyridazin-4-ol]
17 | 13 | COc1cc(N2CCNCC2)ccc1Nc1nc(Nc2cccnc2)cc2cn[nH]c(=O)c12 [Example 44, 5-{[2-methoxy-4-(piperazin-1-yl)phenyl]amino}-7-(pyridin-3-ylamino)pyrido[3,4-d]pyridazin-4(3H)-one]
18 | 6 | COc1cc(N2CCNCC2)ccc1Nc1nc(NC2CCOCC2)cc2cnnc(O)c12 [Example 55, 5-{[2-methoxy-4-(piperazin-1-yl)phenyl]amino}-7-(tetrahydro-2H-pyran-4-ylamino)pyrido[3,4-d]pyridazin-4-ol]
19 | 4 | COc1cc(N2CCNCC2)ccc1Nc1nc(Nc2ccccc2F)cc2cn[nH]c(=O)c12 [Example 48, 7-[(2-fluorophenyl)amino]-5-{[2-methoxy-4-(piperazin-1-yl)phenyl]amino}pyrido[3,4-d]pyridazin-4(3H)-one]
20 | 4 | COc1cc(N2CCNCC2)ccc1Nc1nc(NC2CCN(C)CC2)cc2cn[nH]c(=O)c12 [Example 58, 5-{[2-methoxy-4-(piperazin-1-yl)phenyl]amino}-7-[(1-methylpiperidin-4-yl)amino]pyrido[3,4-d]pyridazin-4(3H)-one]
21 | 4 | COc1c(Nc2nc(Cc3c(Cl)cccc3Cl)cc3cnnc(O)c23)ccc(N2CCNCC2)c1F [Example 59, 7-(2,6-dichlorobenzyl)-5-{[3-fluoro-2-methoxy-4-(piperazin-1-yl)phenyl]amino}pyrido[3,4-d]pyridazin-4-ol]
22 | 3 | COc1cc(N2CCNCC2)ccc1Nc1nc(NC2CCCCC2)cc2cn[nH]c(=O)c12 [Example 46, 7-(cyclohexylamino)-5-{[2-methoxy-4-(piperazin-1-yl)phenyl]amino}pyrido[3,4-d]pyridazin-4(3H)-one]
23 | 2 | COc1cc(N2CCNCC2)ccc1Nc1nc(Nc2cccc(Cl)c2Cl)cc2cn[nH]c(=O)c12 [Example 51, 7-[(2,3-dichlorophenyl)amino]-5-{[2-methoxy-4-(piperazin-1-yl)phenyl]amino}pyrido[3,4-d]pyridazin-4(3H)-one]
24 | 2 | O=c1[nH]ncc2cc(Cc3c(Cl)cccc3Cl)nc(Nc3ccc(N4CCNCC4)cc3Cl)c12 [Example 57, 5-{[2-chloro-4-(piperazin-1-yl)phenyl]amino}-7-(2,6-dichlorobenzyl)pyrido[3,4-d]pyridazin-4(3H)-one]
25 | 1 | COc1cc(N2CCNCC2)ccc1Nc1nc(Nc2c(Cl)cc(F)cc2Cl)cc2cnnc(O)c12 [Example 35, 7-[(2,6-dichloro-4-fluorophenyl)amino]-5-{[2-methoxy-4-(piperazin-1-yl)phenyl]amino}pyrido[3,4-d]pyridazin-4-ol]
26 | 1 | COc1cc(N2CCNCC2)ccc1Nc1nc(Nc2c(C)cccc2C)cc2cn[nH]c(=O)c12 [Example 49, 7-[(2,6-dimethylphenyl)amino]-5-{[2-methoxy-4-(piperazin-1-yl)phenyl]amino}pyrido[3,4-d]pyridazin-4(3H)-one]
